In series [1] the target is CYP2D6 (Homo sapiens (Human), UniProt P10635). In words: CYP enzyme inhibition, fluorescent substrate (AMMC). It counts as in vitro ADME. To be noted: read-out: Cyp IC50 2D6. In a few lines: (§1)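 Ten-point 1:1 compound dilutions in NADPH-regenerating cofactor mix, pre-incubated 10 min at 37 °C before enzyme/substrate addition: CYP1A2 0.5 pmol with 5 μM CEC, 15 min, 409 ex/460 em; CYP2D6 1.5 pmol with 1.5 μM AMMC, 30 min, 409 ex/530 em. IC50 from fluorescent product vs concentration.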
CYP2D6, sequence (P10635 whole entry): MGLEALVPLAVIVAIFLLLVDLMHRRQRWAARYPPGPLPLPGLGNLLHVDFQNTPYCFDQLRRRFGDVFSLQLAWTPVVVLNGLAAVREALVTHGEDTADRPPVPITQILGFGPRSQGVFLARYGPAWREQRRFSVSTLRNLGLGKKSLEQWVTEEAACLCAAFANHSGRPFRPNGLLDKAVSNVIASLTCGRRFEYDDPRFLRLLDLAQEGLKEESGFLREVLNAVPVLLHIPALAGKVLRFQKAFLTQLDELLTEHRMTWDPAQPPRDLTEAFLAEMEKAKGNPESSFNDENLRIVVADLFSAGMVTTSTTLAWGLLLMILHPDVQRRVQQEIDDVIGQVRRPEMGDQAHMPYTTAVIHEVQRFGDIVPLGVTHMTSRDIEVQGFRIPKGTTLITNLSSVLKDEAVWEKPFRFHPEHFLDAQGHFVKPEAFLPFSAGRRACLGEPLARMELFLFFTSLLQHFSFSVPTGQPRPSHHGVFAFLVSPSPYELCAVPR

Series [2] deals with CYP3A4(BQ) (Homo sapiens (Human), UniProt P08684). In words: CYP enzyme inhibition, fluorescent substrate BQ. The conditions noted are these: read-out: Cyp IC50 3A4(BQ); CYP3A4, substrate BQ. As for the experimental part: CYP (Cytochrome P450) enzymes are the major drug metabolizing enzymes present in the liver. The inhibition of CYP enzyme activity (IC50) for each of CYP1A2, CYP2C19, CYP2C9, CYP2D6, CYP3A4(BFC) and CYP3A4(BQ) is determined for compounds, where inhibition of metabolism of a known substrate leads to a decrease in the fluorescence of the metabolized product. The fluorescence of the product is monitored as a function of compound concentration.
CYP3A4(BQ), sequence (P08684 whole entry): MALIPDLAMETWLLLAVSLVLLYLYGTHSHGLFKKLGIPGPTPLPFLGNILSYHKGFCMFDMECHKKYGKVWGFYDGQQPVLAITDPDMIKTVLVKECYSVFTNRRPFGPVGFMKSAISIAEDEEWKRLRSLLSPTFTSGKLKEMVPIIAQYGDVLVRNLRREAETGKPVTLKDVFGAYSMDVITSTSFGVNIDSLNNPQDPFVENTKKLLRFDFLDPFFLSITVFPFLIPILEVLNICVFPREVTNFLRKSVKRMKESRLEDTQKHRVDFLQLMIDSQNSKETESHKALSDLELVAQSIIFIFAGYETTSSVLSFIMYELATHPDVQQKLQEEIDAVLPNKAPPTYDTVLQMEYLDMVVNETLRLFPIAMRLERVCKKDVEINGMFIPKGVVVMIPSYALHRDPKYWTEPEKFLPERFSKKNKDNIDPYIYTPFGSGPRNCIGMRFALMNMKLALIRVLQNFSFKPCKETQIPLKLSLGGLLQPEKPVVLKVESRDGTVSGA
Compounds are dissolved in dimethyl sulfoxide to a concentration of 100 mM. These are diluted 1 μL into 82 μL of acetonitrile. […] These are then serially diluted 1:1 (160 μL to 160 μL co-factor mix) for a total of 10 points. A 10 μL aliquot of this final mixture is dispensed into 384 well assay plates and incubated for 10 minutes at 37° C. […] Assay plates are incubated at 37° C. […] The signal versus compound concentration is used to determine the IC50. The enzymes and substrates for this assay are obtained from BD Biosciences.

In series [3] the target is CYP3A4(BFC) (Homo sapiens (Human), UniProt P08684). In words: CYP enzyme inhibition, fluorescent substrate BFC. To be noted: read-out: Cyp IC50 3A4(BFC); CYP3A4, substrate BFC. Put shortly: (§2)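 Human CYP activity was followed by the fluorescence of the metabolized product of a known substrate, which falls as metabolism is inhibited. Compounds from 100 mM DMSO stocks were serially diluted 1:1 over 10 points in co-factor mix and preincubated 10 min at 37 °C. IC50 was fitted from signal versus concentration.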
CYP3A4(BFC), sequence (P08684 whole entry): as above

Series [4] is described as follows: Relative solubility by turbidity threshold concentration in aqueous buffers (pH 1.5, 4.5, 6.8, 7.4). The series is classed as physicochemical. The conditions noted are these: for turbidity threshold (L, M, H) 1.4: pH 1.4 [sic] (method: SGF pH 1.5); for turbidity threshold (L, M, H) 4.5: pH 4.5 (SIF); for turbidity threshold (L, M, H) 6.8: pH 6.8 (SIF); for turbidity threshold (L, M, H) 7.4: pH 7.4 (HEPES). In a few lines: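 Solubility class (high >250 μM, moderate 31.3–250 μM, low <31.3 μM) comes from the concentration where absorbance reaches a 0.01 threshold, averaged across 490/535/650 nm. Samples were compound dilutions from DMSO stock, 1 μL into 99 μL buffer at pH 1.5, 4.5, 6.8 or 7.4.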

Series [5] has as its system B-Raf. In words: B-Raf kinase activity biochemical assay (AlphaScreen, biotin-MEK1 phosphorylation). In a few lines:
(§3)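 Biotin-MEK1 phosphorylation measured after 45 min kinase reaction at RT with 100 μM ATP final; compounds tested at 8 points from 0.1 mM DMSO stock.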
For orientation: Bead proximity is the source of the signal in Alpha formats.

The target in series [6] is B-Raf (Homo sapiens (Human), UniProt P15056). Described as above. The conditions noted are these: B-Raf. Put shortly: as §3
B-Raf (Homo sapiens (Human), UniProt P15056), sequence (P15056 whole entry): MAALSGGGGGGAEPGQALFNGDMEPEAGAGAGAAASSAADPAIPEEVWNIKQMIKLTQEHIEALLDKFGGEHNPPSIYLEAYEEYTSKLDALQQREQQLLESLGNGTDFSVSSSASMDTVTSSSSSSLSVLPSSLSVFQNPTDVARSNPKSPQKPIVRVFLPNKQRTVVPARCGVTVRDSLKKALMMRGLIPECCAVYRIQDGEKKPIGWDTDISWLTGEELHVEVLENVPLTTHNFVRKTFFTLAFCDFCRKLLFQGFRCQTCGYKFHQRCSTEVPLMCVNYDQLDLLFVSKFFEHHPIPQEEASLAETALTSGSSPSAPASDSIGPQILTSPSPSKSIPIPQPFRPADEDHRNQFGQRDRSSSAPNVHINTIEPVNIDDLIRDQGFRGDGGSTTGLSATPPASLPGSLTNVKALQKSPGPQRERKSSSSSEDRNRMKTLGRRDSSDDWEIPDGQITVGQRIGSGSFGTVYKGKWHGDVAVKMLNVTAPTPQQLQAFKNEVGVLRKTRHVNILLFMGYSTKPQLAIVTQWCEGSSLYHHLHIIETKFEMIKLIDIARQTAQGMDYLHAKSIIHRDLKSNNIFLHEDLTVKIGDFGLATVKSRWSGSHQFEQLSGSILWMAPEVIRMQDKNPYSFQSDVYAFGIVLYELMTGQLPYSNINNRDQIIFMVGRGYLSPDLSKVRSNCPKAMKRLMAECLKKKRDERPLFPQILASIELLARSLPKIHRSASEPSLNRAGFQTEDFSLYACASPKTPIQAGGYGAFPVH
In series [7] the target is CYP2C19 (Homo sapiens (Human), UniProt P33261). The experiment in a line: CYP enzyme inhibition, fluorescent substrate (CEC). The conditions noted are these: read-out: Cyp IC50 2C19; CYP2C19, substrate CEC. In a few lines: as §2
CYP2C19, sequence (P33261 whole entry): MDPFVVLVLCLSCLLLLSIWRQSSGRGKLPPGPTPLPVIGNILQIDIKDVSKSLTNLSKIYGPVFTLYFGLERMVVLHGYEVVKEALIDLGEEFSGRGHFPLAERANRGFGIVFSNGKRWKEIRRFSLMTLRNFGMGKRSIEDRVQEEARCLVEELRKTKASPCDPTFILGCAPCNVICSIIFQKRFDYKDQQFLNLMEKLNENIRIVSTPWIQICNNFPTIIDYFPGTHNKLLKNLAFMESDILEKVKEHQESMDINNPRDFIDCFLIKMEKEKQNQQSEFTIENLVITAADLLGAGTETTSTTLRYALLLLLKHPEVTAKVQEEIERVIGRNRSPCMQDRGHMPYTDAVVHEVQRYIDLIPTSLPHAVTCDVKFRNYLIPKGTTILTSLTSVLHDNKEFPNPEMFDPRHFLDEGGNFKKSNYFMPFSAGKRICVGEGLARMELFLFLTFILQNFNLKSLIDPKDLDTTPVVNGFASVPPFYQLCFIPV
Series [8] deals with B-Raf V600E (Homo sapiens (Human), UniProt P15056, V600E). In words: B-Raf V600E kinase activity biochemical assay (AlphaScreen, biotin-MEK1 phosphorylation). To be noted: for IC50: B-Raf V600E. Put shortly: as §3
B-Raf V600E, sequence (P15056 whole entry V600E): as the sequence (P15056 whole entry) above, with V600E counted along it
The target of series [9] is c-Raf-1 (Homo sapiens, UniProt P04049). In words: c-Raf-1 kinase activity biochemical assay (AlphaScreen, biotin-MEK1 phosphorylation). In a few lines:
as §3

The target in series [10] is CYP1A2 (Homo sapiens (Human), UniProt P05177). The experiment in a line: CYP enzyme inhibition, fluorescent substrate (CEC). Put shortly: as §1
CYP1A2, sequence (P05177 whole entry): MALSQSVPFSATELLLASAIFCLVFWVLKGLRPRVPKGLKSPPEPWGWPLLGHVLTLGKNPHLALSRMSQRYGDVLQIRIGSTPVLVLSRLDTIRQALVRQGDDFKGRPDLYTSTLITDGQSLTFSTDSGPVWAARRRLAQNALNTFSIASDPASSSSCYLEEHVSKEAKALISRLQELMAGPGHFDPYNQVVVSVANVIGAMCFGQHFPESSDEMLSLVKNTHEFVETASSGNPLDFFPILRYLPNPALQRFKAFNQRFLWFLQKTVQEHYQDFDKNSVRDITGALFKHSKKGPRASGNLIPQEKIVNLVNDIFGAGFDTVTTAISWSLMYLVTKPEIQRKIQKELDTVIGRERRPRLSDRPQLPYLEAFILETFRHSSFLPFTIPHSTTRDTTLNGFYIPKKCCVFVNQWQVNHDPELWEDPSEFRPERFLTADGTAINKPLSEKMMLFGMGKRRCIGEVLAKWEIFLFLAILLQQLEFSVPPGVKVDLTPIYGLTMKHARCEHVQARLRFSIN
For series [11], the target named is CYP2C9 (Homo sapiens (Human), UniProt P11712). The experiment in a line: CYP enzyme inhibition, fluorescent substrate (MFC). To be noted: read-out: Cyp IC50 2C9; CYP2C9, substrate MFC. Put shortly:
as §2

Like-named read-outs stand apart in the source and are kept apart here.

Consider seven compounds from patent US9617267B2, “Compounds and methods for kinase modulation, and indications therefor” (Plexxikon Inc., priority 2009, dated 2017).

CYP2C9, sequence (P11712 whole entry): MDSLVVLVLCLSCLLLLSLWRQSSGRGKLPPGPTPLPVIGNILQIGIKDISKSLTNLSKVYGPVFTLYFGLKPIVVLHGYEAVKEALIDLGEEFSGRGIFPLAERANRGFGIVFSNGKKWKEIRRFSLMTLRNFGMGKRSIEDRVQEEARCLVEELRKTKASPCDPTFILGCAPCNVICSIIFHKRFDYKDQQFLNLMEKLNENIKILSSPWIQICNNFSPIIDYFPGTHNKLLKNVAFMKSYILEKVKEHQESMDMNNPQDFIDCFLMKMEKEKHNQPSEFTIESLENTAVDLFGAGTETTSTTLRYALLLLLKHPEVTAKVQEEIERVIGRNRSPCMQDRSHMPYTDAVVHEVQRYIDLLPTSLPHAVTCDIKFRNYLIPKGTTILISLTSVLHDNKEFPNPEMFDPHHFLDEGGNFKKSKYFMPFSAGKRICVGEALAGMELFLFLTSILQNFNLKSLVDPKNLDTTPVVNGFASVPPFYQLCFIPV
c-Raf-1, sequence (P04049 whole entry, looked up): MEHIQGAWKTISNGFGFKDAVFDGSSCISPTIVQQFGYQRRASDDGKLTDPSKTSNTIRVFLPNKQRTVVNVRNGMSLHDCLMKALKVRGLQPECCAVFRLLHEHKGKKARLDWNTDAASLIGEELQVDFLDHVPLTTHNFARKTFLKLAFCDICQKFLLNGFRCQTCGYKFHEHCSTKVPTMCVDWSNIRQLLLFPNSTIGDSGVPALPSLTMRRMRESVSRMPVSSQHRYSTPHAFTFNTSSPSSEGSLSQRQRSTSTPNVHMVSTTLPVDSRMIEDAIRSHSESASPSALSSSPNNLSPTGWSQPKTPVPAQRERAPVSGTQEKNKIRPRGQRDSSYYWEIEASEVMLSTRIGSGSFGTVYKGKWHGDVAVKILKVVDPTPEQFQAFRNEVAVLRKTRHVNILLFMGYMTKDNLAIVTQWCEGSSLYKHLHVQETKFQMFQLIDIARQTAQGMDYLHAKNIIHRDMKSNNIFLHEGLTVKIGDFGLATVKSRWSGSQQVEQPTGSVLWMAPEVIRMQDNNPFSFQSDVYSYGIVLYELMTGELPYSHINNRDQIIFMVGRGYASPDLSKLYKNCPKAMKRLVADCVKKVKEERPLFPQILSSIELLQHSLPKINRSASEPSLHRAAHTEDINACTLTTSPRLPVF

In general, IC50 refers to the concentration at which inhibition is half-maximal. With `Cc1ncnc2[nH]cc(C(=O)c3c(F)ccc(NS(=O)(=O)c4ccc(C(F)(F)F)cc4)c3F)c12` [P-1001, N-[2,4-Difluoro-3-(4-methyl-7H-pyrrolo[2,3-d]pyrimidine-5-carbonyl)-phenyl]-4-trifluoromethyl-benzenesulfonamide], the half-inhibitory concentration (IC50) in [1] was > 10 µM; in [2], > 10 µM; in series [3], < 5 µM; in series [6], < 0.1 µM; in series [7], > 10 µM; in series [8], > 0.1 µM. Moreover, the IC50 in [9] was < 0.1 µM; in [10] (human, 15 min), > 10 µM; in series [11] it was > 10 µM. Moreover, the “turbidity threshold (L, M, H) 1.4” value in series [4] is recorded as “H (high solubility if the threshold concentration is >250 μm)”. Moreover, the “turbidity threshold (L, M, H) 4.5” value in series [4] was “M (moderate solubility if the threshold concentration is 31.3 μM to 250 μM)”. The “turbidity threshold (L, M, H) 6.8” value in series [4] is recorded as “M (moderate solubility if the threshold concentration is 31.3 μM to 250 μM)”. Besides, the “turbidity threshold (L, M, H) 7.4” value in series [4] was “M (moderate solubility if the threshold concentration is 31.3 μM to 250 μM)”. Also, the “Biochemical activity ratio B/V600E” value in [5] (ratio of IC50 B-Raf / B-Raf V600E) is listed as 0.1-10. In [5] (ratio of IC50 B-Raf / c-Raf-1), the “Biochemical activity ratio B/C” value is listed as 0.1-10. In [8] (ratio of IC50 B-Raf V600E / c-Raf-1), the “Biochemical activity ratio V600E/C” value was >10.
In the case of `CCCS(=O)(=O)Nc1ccc(F)c(C(=O)c2c[nH]c3ncnc(Nc4ccccc4)c23)c1F` [P-1048, Propane-1-sulfonic acid [2,4-difluoro-3-(4-phenylamino-7H-pyrrolo[2,3-d]pyrimidine-5-carbonyl)-phenyl]-amide], the half-maximal inhibitory concentration (IC50) in [1] is > 10 µM; in series [2] it was > 10 µM; in series [3], > 10 µM; in series [7], > 10 µM; in series [8], < 0.1 µM; in series [10] (human, 15 min), > 10 µM. In addition, the IC50 in series [11] is > 10 µM.
On to `CCCS(=O)(=O)Nc1ccc(F)c(C(=O)c2c[nH]c3ncnc(Nc4ccc(OC)cc4F)c23)c1F` [P-1101, Propane-1-sulfonic acid {2,4-difluoro-3-[4-(2-fluoro-4-methoxy-phenylamino)-7H-pyrrolo[2,3-d]pyrimidine-5-carbonyl]-phenyl}-amide], for which the IC50 was > 10 µM in series [1]; > 10 µM in series [2]; > 10 µM in series [3]; > 10 µM in series [7]; > 10 µM in series [10] (human, 15 min); > 10 µM in series [11]. In addition, the “turbidity threshold (L, M, H) 1.4” value in series [4] is on record as “L (low solubility if the threshold concentration is <31.3 μM)”. Further, the “turbidity threshold (L, M, H) 4.5” value in series [4] is given as “L (low solubility if the threshold concentration is <31.3 μM)”. Moreover, the “turbidity threshold (L, M, H) 6.8” value in series [4] is “L (low solubility if the threshold concentration is <31.3 μM)”. Moreover, the “turbidity threshold (L, M, H) 7.4” value in [4] is listed as “L (low solubility if the threshold concentration is <31.3 μM)”.
`O=C(c1c(F)ccc(NS(=O)(=O)c2ccccc2F)c1F)c1c[nH]c2ncnc(NC3CC3)c12` [P-1103, N-[3-(4-Cyclopropylamino-7H-pyrrolo[2,3-d]pyrimidine-5-carbonyl)-2,4-difluoro-phenyl]-2-fluoro-benzenesulfonamide]: the IC50 in series [1] is > 10 µM; in series [2], > 10 µM; in series [3], > 10 µM; in series [7], > 10 µM; in series [10] (human, 15 min) it was > 10 µM; in [11], > 10 µM. For the same compound, the “turbidity threshold (L, M, H) 1.4” value in series [4] is “M (moderate solubility if the threshold concentration is 31.3 μM to 250 μM)”. Also, the “turbidity threshold (L, M, H) 4.5” value in [4] is “L (low solubility if the threshold concentration is <31.3 μM)”. Also, in [4], the “turbidity threshold (L, M, H) 6.8” value is given as “L (low solubility if the threshold concentration is <31.3 μM)”. The “turbidity threshold (L, M, H) 7.4” value in series [4] is “M (moderate solubility if the threshold concentration is 31.3 μM to 250 μM)”.
Take `O=C(c1c(F)ccc(NS(=O)(=O)c2cc(F)ccc2F)c1F)c1c[nH]c2ncnc(NC3CC3)c12` [P-1104, N-[3-(4-Cyclopropylamino-7H-pyrrolo[2,3-d]pyrimidine-5-carbonyl)-2,4-difluoro-phenyl]-2,5-difluoro-benzenesulfonamide]: the IC50 in series [1] is > 10 µM; in series [2], > 10 µM; in series [3], > 10 µM; in series [7], > 10 µM; in [10] (human, 15 min) it was > 10 µM; in [11], > 10 µM. Besides, the “turbidity threshold (L, M, H) 1.4” value in [4] was “H (high solubility if the threshold concentration is >250 μm)”. Besides, the “turbidity threshold (L, M, H) 4.5” value in [4] was “M (moderate solubility if the threshold concentration is 31.3 μM to 250 μM)”. The “turbidity threshold (L, M, H) 6.8” value in series [4] is “M (moderate solubility if the threshold concentration is 31.3 μM to 250 μM)”. Also, the “turbidity threshold (L, M, H) 7.4” value in series [4] was “M (moderate solubility if the threshold concentration is 31.3 μM to 250 μM)”.
Regarding `O=C(c1c(F)ccc(NS(=O)(=O)c2cc(F)ccc2F)c1F)c1c[nH]c2ncnc(C3CC3)c12` [P-1107, N-[3-(4-Cyclopropyl-7H-pyrrolo[2,3-d]pyrimidine-5-carbonyl)-2,4-difluoro-phenyl]-2,5-difluoro-benzenesulfonamide], the IC50 is > 10 µM in series [1]; > 10 µM in series [2]; > 10 µM in [3]; > 10 µM in series [7]; 5 to 10 µM in [10]; > 10 µM in series [11]. Besides, the “turbidity threshold (L, M, H) 1.4” value in [4] is “M (moderate solubility if the threshold concentration is 31.3 μM to 250 μM)”. The “turbidity threshold (L, M, H) 4.5” value in [4] is listed as “L (low solubility if the threshold concentration is <31.3 μM)”. The “turbidity threshold (L, M, H) 6.8” value in series [4] is on record as “M (moderate solubility if the threshold concentration is 31.3 μM to 250 μM)”. In addition, the “turbidity threshold (L, M, H) 7.4” value in series [4] is reported as “M (moderate solubility if the threshold concentration is 31.3 μM to 250 μM)”.
For the compound `Cc1nn(C)cc1Nc1ncnc2[nH]cc(C(=O)c3c(F)ccc(NS(=O)(=O)c4ccccc4F)c3F)c12` [P-1154, N-{3-[4-(1,3-Dimethyl-1H-pyrazol-4-ylamino)-7H-pyrrolo[2,3-d]pyrimidine-5-carbonyl]-2,4-difluoro-phenyl}-2-fluoro-benzenesulfonamide], the IC50 is > 10 µM in series [1]; > 10 µM in [2]; > 10 µM in series [3]; > 10 µM in series [7]; > 10 µM in [10] (human, 15 min); > 10 µM in [11]. Also, in [4], the “turbidity threshold (L, M, H) 1.4” value was “L (low solubility if the threshold concentration is <31.3 μM)”. Moreover, the “turbidity threshold (L, M, H) 4.5” value in [4] is listed as “L (low solubility if the threshold concentration is <31.3 μM)”. The “turbidity threshold (L, M, H) 6.8” value in series [4] is on record as “L (low solubility if the threshold concentration is <31.3 μM)”. In addition, the “turbidity threshold (L, M, H) 7.4” value in [4] is “L (low solubility if the threshold concentration is <31.3 μM)”.
